From patent publication US20040248877A1, “Polycyclic diazodioxide-based Bcl-2 protein antagonists and use thereof” (priority 2003, published 2004)
Like-named read-outs stand apart in the source and are kept apart here.

How the values were obtained:
[1] = test system: A549 human lung cells expressing low Bcl-2 and high Bcl-XL levels; assay: Acute cytotoxicity (apoptotic activity), Alamar Blue viability; format: cell-based
Method: (§1) The biological activity of the compounds provided herein were assessed in cellular system by the method similar to the one described by Amundson et al. (Amundson, S. A. et al, Cancer Research 2000, 60, 6101-6110), which is incorporated herein by reference in its entirety. The compounds were tested for acute cytotoxicity (apoptotic activity) using two human cancer cell lines expressing high levels of either Bcl-2 or Bcl-XL. HL60, human leukemic cells expressing high Bcl-2 and low Bcl-XL levels, and A549 human lung cells expressing low Bcl-2 and high Bcl-XL levels, were incubated with the compounds at concentrations between 0.5 and 1000 μg/mL for 4 hours at 37° C., 5% CO2. The number of viable cells were measured by mitochondrial transformation of Alamar Blue to a fluorescent dye. LC50 values for each test compound and controls are provided in the individual examples that follow.
(§2) The compounds provided herein were tested for acute cytoxicity (apoptotic activity) using two human cancer cell lines expressing high levels of either Bcl-2 or Bcl-XL. HL-60 cells expressing high Bcl-2 and low Bcl-XL levels, and A549 human lung cells expressing low Bcl-2 and high Bcl-XL levels (Amundson, S. A. et al. Cancer Research 2000, 60, 6101-6110) were incubated with the compounds at concentrations between […] for 4 hours at 37° C., 5% CO2. The number of viable cells were measured my mitochondrial transformation of Alamar Blue to a fluorescent dye. As negative controls, the compounds were tested against the cell lines with low levels of Bcl-2 expression, viz., MDA-453 cells (Enyedy, I. J. et al. J. Med. Chem. 2001, 44, 4313-4324). LC50 values for each compound and controls were determined.

[2] = test system: HL60, human leukemic cells expressing high Bcl-2 and low Bcl-XL levels; assay: as above; format: cell-based
Method: as §1, §2

Bcl-2 and Bcl XL = conditions: cited from earlier work
cell = cell line not specified; cited from earlier work
Bcl-XL = Bcl-XL (Homo sapiens, UniProt Q07817); conditions: cited from earlier work
Sequence of Bcl-XL (Q07817 whole entry, species assumed): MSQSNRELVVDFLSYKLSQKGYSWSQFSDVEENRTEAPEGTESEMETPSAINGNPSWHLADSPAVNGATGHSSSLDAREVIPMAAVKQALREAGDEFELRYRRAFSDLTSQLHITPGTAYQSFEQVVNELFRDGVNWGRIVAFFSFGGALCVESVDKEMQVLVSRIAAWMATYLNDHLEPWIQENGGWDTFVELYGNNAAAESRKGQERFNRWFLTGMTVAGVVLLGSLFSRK

[3] = Homo sapiens, A549, 4 h, read-out: LC 50 (μM) A549
[4] = Homo sapiens, HL-60, 4 h, read-out: LC 50 (μM) HL-60
[5] = protein not specified, read-out: IC50 (FP)

For `[O-][n+]1nc2ccccc2c2ccccc21` [compound 9], the CC50 [1, 3] was > 200 µM and the CC50 [2, 4] was > 200 µM.

In the case of `O=C(Nc1cc(S(=O)(=O)c2ccc(Cl)cc2)ccc1Cl)c1cc(Cl)cc(I)c1O` [Compound 6], the CC50 [1, 3] is listed as > 200 µM, the CC50 [2, 4] is listed as > 200 µM and the IC50 (Bcl-2 and Bcl XL; [5]) is listed as 3.3 µM. The IC50 (cell) was ~30 µM.

In the case of `[O-][N+]1=[N+]([O-])c2ccc(OCC(F)(F)F)cc2CCc2cc(OCC(F)(F)F)ccc21` [Example 1, dibenzo[c,g][1,2]diazocine, 11,12-dihydro-2,9-bis(2,2,2-trifluoroethoxy)-, 5,6-dioxide], the CC50 ([1]; Homo sapiens, A549, 4 hours at 37° C., read-out: LC50 value in A549 cell line) is reported as 80.9 µM and the CC50 ([2]; Homo sapiens, HL-60, 4 hours at 37° C., read-out: LC50 value in HL-60 cell line) is reported as 26.1 µM.

In the case of `CC(C)Cc1cc(-c2ccc(-c3ccc(OCC(=O)O)c(CC(C)C)c3)c(Cc3cccc4ccccc34)c2)ccc1CCC(=O)O` [Compound 7], the CC50 [1, 3] is given as > 200 µM, the CC50 [2, 4] is given as > 200 µM and the IC50 (Bcl-2 and Bcl XL; Bcl-2 antagonist designed by molecular modeling, read-out: IC50 value) is given as 0.114 µM.

In the case of `[O-]/[N+]1=N/c2ccc(OC(F)F)cc2CCc2cc(OC(F)F)ccc21` [compound 16], the CC50 [1, 3] is reported as > 200 µM and the CC50 [2, 4] is reported as > 200 µM.

In the case of `[O-]/[N+]1=N/c2ccc(OCc3ccccc3)cc2CCc2cc(OCc3ccccc3)ccc21` [compound 15], the CC50 [1, 3] is reported as > 200 µM and the CC50 [2, 4] is reported as > 200 µM.

With `[O-][N+]1=[N+]([O-])c2ccc(OC(F)F)cc2CCc2cc(OC(F)F)ccc21` [Example 2, dibenzo[c,g][1,2]diazocine, 2,9-bis(difluoromethoxy)-11,12-dihydro-5,6-dioxide] the CC50 [1] was 298 µM and the CC50 [2] was 18.5 µM.

For `CC(C)C(C(=O)O)C1C(=O)/C(=C/c2ccc(Br)cc2)SC1=S` (stereo not shown) [Compound 5], the CC50 [1, 3] is given as > 200 µM, the CC50 [2, 4] is given as > 200 µM and the IC50 (Bcl-2 and Bcl XL; [5]) is given as 2.4 µM. For the same molecule, the IC50 (cell) was ~90 µM.

In the case of `[O-]/[N+]1=N/c2ccc(F)cc2CCc2cc(F)ccc21` [compound 13], the CC50 [1, 3] is reported as > 200 µM and the CC50 [2, 4] is reported as > 200 µM.

For `Cc1cc2c(C(C)C)c(O)c(O)c(C=O)c2c(O)c1-c1c(C)cc2c(C(C)C)c(O)c(O)c(C=O)c2c1O` [Compound 1, Gossypol], the IC50 (Bcl-XL) is given as 0.4 µM and the IC50 (cell) is given as 1.5 µM.

In the case of `[O-]/[N+]1=N/c2ccc(Oc3ccc(C(F)(F)F)cn3)cc2CCc2ccccc21` [compound 19], the CC50 [1, 3] is reported as > 200 µM and the CC50 [2, 4] is reported as > 200 µM.

In the case of `CCOC(=O)OC(C#N)C1C=C(N)Oc2ccc(Br)cc21` (stereo not shown) [Compound 4], the CC50 [1, 3] is given as > 200 µM, the CC50 [2, 4] is given as > 200 µM and the IC50 (Bcl-2 and Bcl XL; [5]) is given as 9 µM. For the same molecule, the IC50 (cell) was 18 µM.

With `[O-]/[N+]1=N/c2ccc(Oc3ccc(C(F)(F)F)cn3)cc2CCc2cc(Oc3ccc(C(F)(F)F)cn3)ccc21` [compound 18] the CC50 [1, 3] was > 200 µM and the CC50 [2, 4] was > 200 µM.

In the case of `CCS(=O)(=O)c1ccc2c(c1)CCc1cc(S(=O)(=O)CC)ccc1/[N+]([O-])=N\2` [compound 21], the CC50 [1, 3] is reported as > 200 µM and the CC50 [2, 4] is reported as > 200 µM.

For `CCCC[C@H]1C(=O)O[C@H](C)[C@H](NC(=O)c2cccc(NC=O)c2O)C(=O)O[C@@H](C)[C@@H]1OC(=O)CC(C)C` [Compound 2, Antimycin], the IC50 (Bcl-2 and Bcl XL; [5]) is given as 2.5 µM and the IC50 (cell) is given as 1.2 µM.
